≈ marks a conversion by molar mass, not a printed value. Calls of active or inactive are those of the source. The calls are words filed in the database; no cut-off is given here.
What was measured:
Type in all cases: functional
Staphylococcus aureus [1] = experiment: Anti-bacterial activity against methicillin-susceptible Staphylococcus aureus CCARM 0204 by 2-fold microtiter broth dilution method
Staphylococcus aureus [2] = experiment: Anti-bacterial activity against methicillin-resistant Staphylococcus aureus CCARM 3635 by 2-fold microtiter broth dilution method
Staphylococcus aureus [3] = experiment: Anti-bacterial activity against methicillin-susceptible Staphylococcus aureus CCARM 0205 by 2-fold microtiter broth dilution method
Staphylococcus aureus [4] = experiment: Anti-bacterial activity against methicillin-resistant Staphylococcus aureus CCARM 3634 by 2-fold microtiter broth dilution method
Staphylococcus aureus [5] = experiment: Anti-bacterial activity against methicillin-resistant Staphylococcus aureus CCARM 3090 by 2-fold microtiter broth dilution method
Escherichia coli = experiment: Anti-bacterial activity against Escherichia coli ATCC 11775 by 2-fold microtiter broth dilution method; settings: DSM 30083 = JCM 1649 = ATCC 11775
Staphylococcus aureus [6] = experiment: Anti-bacterial activity against methicillin-susceptible Staphylococcus aureus CCARM 0027 by 2-fold microtiter broth dilution method
Salmonella typhimurium = experiment: Anti-bacterial activity against Salmonella typhimurium ATCC 14028 by 2-fold microtiter broth dilution method; settings: Salmonella enterica subsp. enterica serovar Typhimurium
Staphylococcus aureus [7] = experiment: Anti-bacterial activity against methicillin-resistant Staphylococcus aureus CCARM 3089 by 2-fold microtiter broth dilution method
Staphylococcus aureus [8] = experiment: Anti-bacterial activity against methicillin-susceptible Staphylococcus aureus CCARM 3640 by 2-fold microtiter broth dilution method
Klebsiella pneumoniae = experiment: Anti-bacterial activity against Klebsiella pneumoniae ATCC 4352 by 2-fold microtiter broth dilution method

SMILES	MIC (Staphylococcus aureus [1])	MIC (Staphylococcus aureus [2])	MIC (Staphylococcus aureus [3])	MIC (Staphylococcus aureus [4])	MIC (Staphylococcus aureus [5])	Activity (Escherichia coli)	MIC (Staphylococcus aureus [6])	Activity (Salmonella typhimurium)	MIC (Staphylococcus aureus [7])	MIC (Staphylococcus aureus [8])	Activity (Klebsiella pneumoniae)
COc1c(Br)cc([C@H](O)C2=C(c3ccc(O)c(Br)c3)/C(=C/c3cc(Br)c(O)c(Br)c3)OC2=O)cc1Br	2 µg/mL (≈ 2.47 µM)	4 µg/mL (≈ 4.93 µM)	2 µg/mL (≈ 2.47 µM)	4 µg/mL (≈ 4.93 µM)	4 µg/mL (≈ 4.93 µM)	inactive	4 µg/mL (≈ 4.93 µM)	inactive	4 µg/mL (≈ 4.93 µM)	4 µg/mL (≈ 4.93 µM)	inactive
C[C@]12C[C@@]34C=CC(=O)[C@@](C)(CCC(=O)Nc5c(O)ccc(C(=O)O)c5O)[C@@H]3[C@H](C[C@@H]1C4)O2	4 µg/mL (≈ 9.06 µM)	8 µg/mL (≈ 18.1 µM)	4 µg/mL (≈ 9.06 µM)	8 µg/mL (≈ 18.1 µM)	8 µg/mL (≈ 18.1 µM)		4 µg/mL (≈ 9.06 µM)		8 µg/mL (≈ 18.1 µM)	8 µg/mL (≈ 18.1 µM)	
COc1ccc(C=C2OC(=O)C([C@@H](O)c3cc(Br)c(OC)c(Br)c3)=C2c2cc(Br)c(O)c(Br)c2)cc1Br	4 µg/mL (≈ 4.85 µM)	4 µg/mL (≈ 4.85 µM)	2 µg/mL (≈ 2.42 µM)	4 µg/mL (≈ 4.85 µM)	4 µg/mL (≈ 4.85 µM)	inactive	4 µg/mL (≈ 4.85 µM)	inactive	8 µg/mL (≈ 9.7 µM)	4 µg/mL (≈ 4.85 µM)	inactive
COc1ccc(C=C2OC(=O)C([C@@H](O)c3cc(Br)c(OC)c(Br)c3)=C2c2cc(Br)c(O)c(Br)c2)cc1	4 µg/mL (≈ 5.36 µM)	4 µg/mL (≈ 5.36 µM)	4 µg/mL (≈ 5.36 µM)	4 µg/mL (≈ 5.36 µM)	8 µg/mL (≈ 10.7 µM)	inactive	4 µg/mL (≈ 5.36 µM)	inactive	4 µg/mL (≈ 5.36 µM)	8 µg/mL (≈ 10.7 µM)	inactive
COc1c(Br)cc([C@H](O)C2=C(c3cc(Br)c(O)c(Br)c3)/C(=C/c3ccc(O)c(Br)c3)OC2=O)cc1Br	1 µg/mL (≈ 1.23 µM)	1 µg/mL (≈ 1.23 µM)	0.5 µg/mL (≈ 0.617 µM)	2 µg/mL (≈ 2.47 µM)	2 µg/mL (≈ 2.47 µM)	inactive	1 µg/mL (≈ 1.23 µM)	inactive	2 µg/mL (≈ 2.47 µM)	1 µg/mL (≈ 1.23 µM)	inactive
O=C1O/C(=C\c2cc(Br)c(O)c(Br)c2)C(c2cc(Br)c(O)c(Br)c2)=C1[C@@H](O)c1cc(Br)c(O)c(Br)c1	1 µg/mL (≈ 1.14 µM)	1 µg/mL (≈ 1.14 µM)	1 µg/mL (≈ 1.14 µM)	1 µg/mL (≈ 1.14 µM)	1 µg/mL (≈ 1.14 µM)	inactive	2 µg/mL (≈ 2.28 µM)	inactive	1 µg/mL (≈ 1.14 µM)	1 µg/mL (≈ 1.14 µM)	inactive
CCCCCCCCCC(=O)N[C@@H](Cc1c[nH]c2ccccc12)C(=O)N[C@@H](CC(N)=O)C(=O)N[C@@H](CC(=O)O)C(=O)N[C@@H]1C(=O)NCC(=O)N[C@@H](CCCN)C(=O)N[C@@H](CC(=O)O)C(=O)N[C@H](C)C(=O)N[C@@H](CC(=O)O)C(=O)NCC(=O)N[C@H](CO)C(=O)N[C@@H]([C@H](C)CC(=O)O)C(=O)N[C@@H](CC(=O)c2ccccc2N)C(=O)O[C@@H]1C [DAPTOMYCIN]	4 µg/mL (≈ 2.47 µM)	> 32 µg/mL	2 µg/mL (≈ 1.23 µM)	> 32 µg/mL	> 32 µg/mL		16 µg/mL (≈ 9.87 µM)		> 32 µg/mL	16 µg/mL (≈ 9.87 µM)	
CN[C@H](CC(C)C)C(=O)N[C@H]1C(=O)N[C@@H](CC(N)=O)C(=O)N[C@H]2C(=O)N[C@H]3C(=O)N[C@H](C(=O)N[C@H](C(=O)O)c4cc(O)cc(O)c4-c4cc3ccc4O)[C@H](O)c3ccc(c(Cl)c3)Oc3cc2cc(c3O[C@@H]2O[C@H](CO)[C@@H](O)[C@H](O)[C@H]2O[C@H]2C[C@](C)(N)[C@H](O)[C@H](C)O2)Oc2ccc(cc2Cl)[C@H]1O [VANCOMYCIN]	0.25 µg/mL (≈ 0.173 µM)		< 0.13 µg/mL							0.25 µg/mL (≈ 0.173 µM)	

— ChEMBL document CHEMBL4000224, “Cadiolides J-M, antibacterial polyphenyl butenolides from the Korean tunicate Pseudodistoma antinboja” (2017)
